Measured values: the supplement of paper PMC10307832

compound: Cc1cnc(CNC(=O)c2c(=O)c3ccc(N4CCCN(C)CC4)nc3n3c2sc2ccccc23)cn1 [CX-5461] + NC(=O)Nc1cc(-c2cccc(F)c2)sc1C(=O)N[C@H]1CCCNC1 [AZD7762] (partner 0.2 µM); assay: relative viability (nuclei count vs DMSO), 5 days (fraction); higher = more cells survive; conditions: first compound 0.01 µM
In short: (§1)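 Nuclei were stained with Hoechst during a one-step fixation (final 0.05% Triton X-100, 1% formaldehyde, 1 ug/ml Hoechst) carried out 5 days after dosing, then counted on 4× images. The cells, lung cancer lines in 1536-well plates, had been dosed by pin tool the day after seeding with one drug alone or a fixed anchor-drug dose plus five library-drug doses (not always all listed) in √10 steps. Relative viability is the nuclei count in treated wells divided by that in vehicle wells, and each value is the median of duplicate plates.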

Cell Line | relative viability
NCI-H358 | 0.546
NCI-H2405 | 0.783
HOP-62 | 0.643
LU99A | 0.44
BEN | 0.737
HARA | 0.318
HCC-78 | 0.862
NCI-H322M | 0.531
LCLC-97TM1 | 0.279
A-427 | 0.807
NCI-H441 | 1
NCI-H1734 | 0.583
NCI-H460 | 0.627
NCI-H2347 | 0.825
NCI-H1793 | 0.61
201T | 0.6
NCI-H1915 | 0.75

Cell Line | relative viability
HCC-827 | 0.193
LXF-289 | 1.16
NCI-H23 | 0.23
NCI-H647 | 0.617
CAL-12T | 0.715
NCI-H1651 | 0.48
EPLC-272H | 0.208
NCI-H1355 | 0.75
NCI-H3122 | 1.06
NCI-H1437 | 1.1
NCI-H1755 | 0.453
HCC-15 | 1.24
NCI-H1944 | 0.444
PC-14 | 0.393
EKVX | 0.778
LC-2-ad | 0.834

same assay, conditions: first compound 0.03162 µM

Cell Line | relative viability
NCI-H358 | 0.593
NCI-H2405 | 0.66
HOP-62 | 0.854
LU99A | 0.303
BEN | 0.615
HARA | 0.234
HCC-78 | 0.695
NCI-H322M | 0.517
LCLC-97TM1 | 0.424
A-427 | 0.637
NCI-H441 | 1.31
NCI-H1734 | 0.602
NCI-H460 | 0.513
NCI-H2347 | 0.716
NCI-H1793 | 0.44
201T | 0.682
NCI-H1915 | 0.74

Cell Line | relative viability
HCC-827 | 0.195
LXF-289 | 1.12
NCI-H23 | 0.224
NCI-H647 | 0.384
CAL-12T | 0.658
NCI-H1651 | 0.491
EPLC-272H | 0.25
NCI-H1355 | 0.833
NCI-H3122 | 0.946
NCI-H1437 | 1.05
NCI-H1755 | 0.447
HCC-15 | 1.43
NCI-H1944 | 0.512
PC-14 | 0.455
EKVX | 0.687
LC-2-ad | 0.919

same assay, conditions: first compound 0.1 µM

Cell Line | relative viability
NCI-H358 | 0.372
NCI-H2405 | 0.705
HOP-62 | 0.424
LU99A | 0.212
BEN | 0.555
HARA | 0.361
HCC-78 | 0.601
NCI-H322M | 0.526
LCLC-97TM1 | 0.177
A-427 | 0.612
NCI-H441 | 1.11
NCI-H1734 | 0.317
NCI-H460 | 0.295
NCI-H2347 | 0.688
NCI-H1793 | 0.313
201T | 0.621
NCI-H1915 | 0.643

Cell Line | relative viability
HCC-827 | 0.193
LXF-289 | 1.08
NCI-H23 | 0.186
NCI-H647 | 0.489
CAL-12T | 0.601
NCI-H1651 | 0.328
EPLC-272H | 0.215
NCI-H1355 | 0.613
NCI-H3122 | 0.936
NCI-H1437 | 1.11
NCI-H1755 | 0.38
HCC-15 | 1.22
NCI-H1944 | 0.358
PC-14 | 0.351
EKVX | 0.763
LC-2-ad | 0.836

same assay, conditions: first compound 0.3162 µM

Cell Line | relative viability
NCI-H358 | 0.474
NCI-H2405 | 0.821
HOP-62 | 0.194
LU99A | 0.245
BEN | 0.745
HARA | 0.202
HCC-78 | 0.596
NCI-H322M | 0.523
A-427 | 0.627
NCI-H441 | 1.36
NCI-H1734 | 0.327
NCI-H460 | 0.563
NCI-H2347 | 0.767
NCI-H1793 | 0.391
201T | 0.543
NCI-H1915 | 0.673
HCC-827 | 0.22
NCI-H23 | 0.212
NCI-H647 | 0.439
CAL-12T | 0.698
NCI-H1651 | 0.588
NCI-H1355 | 0.78
NCI-H3122 | 1.03
NCI-H1437 | 1.09
NCI-H1755 | 0.413
HCC-15 | 1.15
NCI-H1944 | 0.269
PC-14 | 0.407
LC-2-ad | 0.848

same assay, conditions: first compound 1 µM

Cell Line | relative viability
NCI-H358 | 0.363
NCI-H2405 | 0.414
HOP-62 | 0.356
LU99A | 0.122
BEN | 0.531
HARA | 0.294
HCC-78 | 0.614
NCI-H322M | 0.509
LCLC-97TM1 | 0.237
A-427 | 0.408
NCI-H441 | 0.963
NCI-H1734 | 0.286
NCI-H460 | 0.046
NCI-H2347 | 0.605
NCI-H1793 | 0.168
201T | 0.491
NCI-H1915 | 0.608

Cell Line | relative viability
HCC-827 | 0.182
LXF-289 | 0.873
NCI-H23 | 0.167
NCI-H647 | 0.0774
CAL-12T | 0.449
NCI-H1651 | 0.143
EPLC-272H | 0.259
NCI-H1355 | 0.288
NCI-H3122 | 0.607
NCI-H1437 | 1.04
NCI-H1755 | 0.406
HCC-15 | 1.23
NCI-H1944 | 0.195
PC-14 | 0.227
EKVX | 0.45
LC-2-ad | 0.742

compound: Cc1cnc(CNC(=O)c2c(=O)c3ccc(N4CCCN(C)CC4)nc3n3c2sc2ccccc23)cn1 [CX-5461] + COc1cc2c(Oc3ccc(NC(=O)C4(C(=O)Nc5ccc(F)cc5)CC4)cc3F)ccnc2cc1OCCCN1CCOCC1 [Foretinib] (partner 0.25 µM); assay: as above; conditions: first compound 0.01 µM
In short: as §1

Cell Line | relative viability
NCI-H358 | 0.671
NCI-H2405 | 1.03
HOP-62 | 1.09
LU99A | 0.818
BEN | 0.781
HARA | 1.01
HCC-78 | 0.596
NCI-H322M | 0.834
LCLC-97TM1 | 0.953
A-427 | 1.12
NCI-H441 | 0.88
NCI-H1734 | 0.88
NCI-H460 | 0.912
NCI-H2347 | 0.994
NCI-H1793 | 0.8
201T | 1.06
NCI-H1915 | 1.14

Cell Line | relative viability
HCC-827 | 1.08
LXF-289 | 0.998
NCI-H23 | 0.874
NCI-H647 | 1.21
CAL-12T | 1.03
NCI-H1651 | 0.734
EPLC-272H | 0.651
NCI-H1355 | 1.03
NCI-H3122 | 0.915
NCI-H1437 | 1.25
NCI-H1755 | 0.934
HCC-15 | 1.11
NCI-H1944 | 0.849
PC-14 | 1
EKVX | 0.971
LC-2-ad | 0.919

same assay, conditions: first compound 0.03162 µM

Cell Line | relative viability
NCI-H358 | 0.666
NCI-H2405 | 1.08
HOP-62 | 1.14
LU99A | 0.797
BEN | 0.606
HARA | 1.09
HCC-78 | 0.503
NCI-H322M | 0.995
LCLC-97TM1 | 1.02
A-427 | 1.2
NCI-H441 | 1.02
NCI-H1734 | 0.878
NCI-H460 | 0.955
NCI-H2347 | 1.11
NCI-H1793 | 0.734
201T | 1.05
NCI-H1915 | 1.07

Cell Line | relative viability
HCC-827 | 1.09
LXF-289 | 1.02
NCI-H23 | 1.15
NCI-H647 | 1.25
CAL-12T | 1.08
NCI-H1651 | 0.55
EPLC-272H | 0.681
NCI-H1355 | 1.01
NCI-H3122 | 0.906
NCI-H1437 | 1.26
NCI-H1755 | 0.905
HCC-15 | 1.02
NCI-H1944 | 0.913
PC-14 | 1.04
EKVX | 0.726
LC-2-ad | 1.01

same assay, conditions: first compound 0.1 µM

Cell Line | relative viability
NCI-H358 | 0.791
NCI-H2405 | 1.04
HOP-62 | 1.08
LU99A | 0.764
BEN | 0.739
HARA | 0.806
HCC-78 | 0.573
NCI-H322M | 0.937
LCLC-97TM1 | 1
A-427 | 1.13
NCI-H441 | 0.615
NCI-H1734 | 0.941
NCI-H2347 | 0.947
NCI-H1793 | 0.665
201T | 1.04
NCI-H1915 | 1.09
HCC-827 | 1.02
LXF-289 | 0.974
NCI-H23 | 0.98
NCI-H647 | 1.26
CAL-12T | 0.966
EPLC-272H | 0.78
NCI-H1355 | 1.01
NCI-H3122 | 0.941
NCI-H1755 | 0.889
HCC-15 | 0.978
NCI-H1944 | 0.897
PC-14 | 1.04
EKVX | 0.698
LC-2-ad | 0.835

same assay, conditions: first compound 0.3162 µM

Cell Line | relative viability
NCI-H358 | 0.236
NCI-H2405 | 0.952
HOP-62 | 1.01
LU99A | 0.495
BEN | 0.525
HCC-78 | 0.602
NCI-H322M | 0.394
NCI-H441 | 0.889
NCI-H1734 | 0.634
NCI-H460 | 1.04
NCI-H2347 | 0.842
201T | 1.08
NCI-H1915 | 1.08
HCC-827 | 1.03
LXF-289 | 0.402
NCI-H23 | 0.938
NCI-H647 | 1.05
CAL-12T | 0.945
NCI-H1651 | 0.598
NCI-H1355 | 0.943
NCI-H3122 | 0.929
NCI-H1437 | 1.23
NCI-H1755 | 0.913
HCC-15 | 0.895
NCI-H1944 | 0.47
PC-14 | 0.962
EKVX | 0.821
LC-2-ad | 0.88

same assay, conditions: first compound 1 µM

Cell Line | relative viability
NCI-H358 | 0.336
NCI-H2405 | 1.03
HOP-62 | 1.04
LU99A | 0.798
BEN | 0.636
HARA | 0.89
HCC-78 | 0.589
NCI-H322M | 0.7
LCLC-97TM1 | 0.975
A-427 | 1.04
NCI-H441 | 0.778
NCI-H1734 | 0.758
NCI-H460 | 0.0917
NCI-H2347 | 0.849
NCI-H1793 | 0.802
201T | 0.74
NCI-H1915 | 1.05

Cell Line | relative viability
HCC-827 | 1.06
LXF-289 | 0.902
NCI-H23 | 1.08
NCI-H647 | 1
CAL-12T | 0.741
NCI-H1651 | 0.168
EPLC-272H | 0.467
NCI-H1355 | 0.95
NCI-H3122 | 0.974
NCI-H1437 | 1.18
NCI-H1755 | 0.898
HCC-15 | 0.591
NCI-H1944 | 0.822
PC-14 | 0.887
EKVX | 1.03
LC-2-ad | 0.504
